Usually Ki stands for a dissociation constant, usually derived from enzyme kinetics or from competition with a known ligand. What is called melting point is the temperature, or range, at which the solid turns liquid.

The target of the first data set is T1, rat mGlu2 receptor (Rattus norvegicus, UniProt P31421).
T1 construct: expressed in transfected cells; vector pcD1mGR2
T1 sequence (P31421 19-872): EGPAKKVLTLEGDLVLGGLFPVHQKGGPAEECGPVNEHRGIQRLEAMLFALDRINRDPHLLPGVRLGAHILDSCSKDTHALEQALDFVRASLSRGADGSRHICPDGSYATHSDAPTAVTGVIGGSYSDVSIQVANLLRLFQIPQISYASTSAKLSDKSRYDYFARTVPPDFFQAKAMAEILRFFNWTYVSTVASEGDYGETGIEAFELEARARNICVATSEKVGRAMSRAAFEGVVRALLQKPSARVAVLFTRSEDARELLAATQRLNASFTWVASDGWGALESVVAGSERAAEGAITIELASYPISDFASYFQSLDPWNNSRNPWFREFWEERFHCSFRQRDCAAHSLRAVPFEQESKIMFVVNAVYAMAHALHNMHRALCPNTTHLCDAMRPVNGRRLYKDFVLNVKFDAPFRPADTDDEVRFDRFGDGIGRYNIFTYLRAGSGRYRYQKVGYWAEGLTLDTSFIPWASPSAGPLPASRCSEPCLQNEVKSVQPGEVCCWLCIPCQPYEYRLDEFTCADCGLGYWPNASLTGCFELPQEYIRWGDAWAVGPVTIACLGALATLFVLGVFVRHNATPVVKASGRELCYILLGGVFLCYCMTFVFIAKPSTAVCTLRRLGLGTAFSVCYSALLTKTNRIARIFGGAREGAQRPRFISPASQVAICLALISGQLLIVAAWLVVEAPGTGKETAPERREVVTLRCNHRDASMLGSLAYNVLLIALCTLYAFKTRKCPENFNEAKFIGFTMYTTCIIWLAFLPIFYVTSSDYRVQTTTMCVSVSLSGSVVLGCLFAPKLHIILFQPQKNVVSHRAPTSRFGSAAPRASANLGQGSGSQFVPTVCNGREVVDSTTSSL
The experiment in a line: [3H]-LY354740 binding on mGlu2 transfected CHO cell membranes. The conditions noted are these: inhibition of 10 nM [3H]-LY354740 binding, mGlu2 transfected CHO cell membranes, room temperature, 1 hour; read-out: Ki mGlu2.
Experimental: [^3H]-LY354740 Binding on mGlu2 Transfected CHO Cell Membranes
Transfection and Cell Culture
The cells were maintained in Dulbecco's Modified Eagle medium with reduced L-glutamine (2 mM final concentration) and 10% dialysed foetal calf serum from Gibco BRL (Basel, Switzerland).
Cells, cultured as above, were harvested and washed three times with cold PBS and frozen at −80° C. The pellet was resuspended in cold 20 mM HEPES-NaOH buffer containing 10 mM EDTA (pH 7.4), and homogenised with a polytron (Kinematica, AG, Littau, Switzerland) for 10 s at 10 000 rpm. After centrifugation for 30 min. at 4° C., the pellet was washed once with the same buffer, and once with cold 20 mM HEPES-NaOH buffer containing 0.1 mM EDTA, (pH 7.4). Protein content was measured using the Pierce method (Socochim, Lausanne, Switzerland) using bovine serum albumin as standard.
After thawing, the membranes were resuspended in cold 50 mM Tris-HCl buffer containing 2 mM MgCl2 and 2 mM CaCl2, (pH 7) (binding buffer). The final concentration of the membranes in the assays was 25 μg protein/ml. Inhibition experiments were performed with membranes incubated with 10 nM [^3H]-LY354740 at room temperature, for 1 hour, in presence of various concentrations of the compound to be tested. Following the incubations, membranes were filtered onto Whatmann GF/C glass fiber filters and washed 5 times with cold binding buffer. Non specific binding was measured in the presence of 10 μM DCG IV. After transfer of the filters into plastic vials containing 10 ml of Ultima-gold scintillation fluid (Packard, Zürich, Switzerland), the radioactivity was measured by liquid scintillation in a Tri-Carb 2500 TR counter (Packard, Zürich, Switzerland).
The inhibition curves were fitted with a four parameter logistic equation giving IC50 values, and Hill coefficients.
As to `O=C1CC(c2cccc(-c3cccnc3)c2)=Nc2cc(Cl)c(Cl)cc2N1` [Example 1, 7,8-Dichloro-4-(3-pyridin-3-yl-phenyl)-1,3-dihydro-benzo[b][1,4]diazepin-2-one], the inhibition constant Ki was 1.35 nM.
On the same count and under the same terms, the result for `CN(C)c1cc2c(cc1C(F)(F)F)NC(=O)CC(c1cccc(-c3cccnc3)c1)=N2` [Example 3, 7-Dimethylamino-4-(3-pyridin-3-yl-phenyl)-8-trifluoromethyl-1,3-dihydro-benzo[b][1,4]diazepin-2-one] reads 2.3 nM; that for `CN(C)c1cc2c(cc1C(F)(F)F)NC(=O)CC(c1cccc(-c3ccncc3)c1)=N2` [Example 4, 7-Dimethylamino-4-(3-pyridin-4-yl-phenyl)-8-trifluoromethyl-1,3-dihydro-benzo[b][1,4]diazepin-2-one], 6 nM; that for `O=C1CC(c2cccc(-c3ccccn3)c2)=Nc2ccc(-n3cccc3)cc2N1` [Example 54, 4-(3-Pyridin-2-yl-phenyl)-8-pyrrol-1-yl-1,3-dihydro-benzo[b][1,4]diazepin-2-one], 32.6 nM.
As to `O=C1CC(c2cccc(-c3cccnc3)c2)=Nc2cc(OCC(F)(F)F)ccc2N1` [Example 57, 4-(3-Pyridin-3-yl-phenyl)-7-(2,2,2-trifluoro-ethoxy)-1,3-dihydro-benzo[b][1,4]diazepin-2-one], the Ki came out at 6.2 nM.
For `Cc1cc2c(cc1Cl)NC(=O)CC(c1cccc(-c3ccncc3)c1)=N2` [Example 67, 8-Chloro-7-methyl-4-(3-pyridin-4-yl-phenyl)-1,3-dihydro-benzo[b][1,4]diazepin-2-one], the Ki amounted to 1.55 nM.
On the same count and under the same terms, the value for `Cc1cc(-c2cccc(C3=Nc4ccc(-c5ccccc5F)cc4NC(=O)C3)c2)ccn1` [Example 72, 8-(2-Fluoro-phenyl)-4-[3-(2-methyl-pyridin-4-yl)-phenyl]-1,3-dihydro-benzo[b][1,4]diazepin-2-one] was 1.8 nM; that for `Cc1cc(-c2cccc(C3=Nc4cc(C)c(Cl)cc4NC(=O)C3)c2)ccn1` [Example 73, 8-Chloro-7-methyl-4-[3-(2-methyl-pyridin-4-yl)-phenyl]-1,3-dihydro-benzo[b][1,4]diazepin-2-one] was 2.7 nM.

Test system in a further data set: not given
Test: not given
Conditions: not given
On to `O=C1CC(c2ccnc(-c3cccnc3)c2)=Nc2cc(OCC(F)(F)F)c(C(F)(F)F)cc2N1` [Example 394, 4-[2,3′]Bipyridinyl-4-yl-7-(2,2,2-trifluoro-ethoxy)-8-trifluoromethyl-1,3-dihydro-benzo[b][1,4]diazepin-2-one], for which the melting point came out at 197 °C.
`CC(C)CN(C)Cc1cc(-c2cccc(C3=Nc4cc(N(C)CC(C)C)c(C(F)(F)F)cc4NC(=O)C3)c2)ccn1` [Example 395, 7-(Isobutyl-methyl-amino)-4-(3-{2-[(isobutyl-methyl-amino)-methyl]-pyridin-4-yl}-phenyl)-8-trifluoromethyl-1,3-dihydro-benzo[b][1,4]diazepin-2-one] returned a melting point of 190 °C.
In turn, `Cc1cc2c(cc1Cl)NC(=O)CC(c1cccc(-c3ccnc(CN(C)CC(C)C)c3)c1)=N2` [Example 396, 8-Chloro-4-(3-{2-[(isobutyl-methyl-amino)-methyl]-pyridin-4-yl}-phenyl)-7-methyl-1,3-dihydro-benzo[b][1,4]diazepin-2-one] yielded a melting point of 151 °C.
In the case of `CC(C)CN(C)Cc1cc(-c2cccc(C3=Nc4cc(OCC(F)(F)F)c(C(F)(F)F)cc4NC(=O)C3)c2)ccn1` [Example 397, 4-(3-{2-[(Isobutyl-methyl-amino)-methyl]-pyridin-4-yl}-phenyl)-7-(2,2,2-trifluoro-ethoxy)-8-trifluoromethyl-1,3-dihydro-benzo[b][1,4]diazepin-2-one], the melting point turned out to be 166 °C.
`COCc1cc(-c2cccc(C3=Nc4cc(N(C)CC(C)C)c(C(F)(F)F)cc4NC(=O)C3)c2)ccn1` [Example 398, 7-(Isobutyl-methyl-amino)-4-[3-(2-methoxymethyl-pyridin-4-yl)-phenyl]-8-trifluoromethyl-1,3-dihydro-benzo[b][1,4]diazepin-2-one] registered a melting point of 141 °C.
On the same count and under the same terms, the value for `COCc1cc(-c2cccc(C3=Nc4cc(C)c(Cl)cc4NC(=O)C3)c2)ccn1` [Example 399, 8-Chloro-4-[3-(2-methoxymethyl-pyridin-4-yl)-phenyl]-7-methyl-1,3-dihydro-benzo[b][1,4]diazepin-2-one] was 216 °C; that for `COCc1cc(-c2cccc(C3=Nc4cc(OCC(F)(F)F)c(C(F)(F)F)cc4NC(=O)C3)c2)ccn1` [Example 400, 4-[3-(2-Methoxymethyl-pyridin-4-yl)-phenyl]-7-(2,2,2-trifluoro-ethoxy)-8-trifluoromethyl-1,3-dihydro-benzo[b][1,4]diazepin-2-one] was 225 °C.
The molecule `Cc1cc(-c2cccc(C3=Nc4cc(C)c(Cl)cc4NC(=O)C3)c2)cc(CO)n1` [Example 401, 8-Chloro-4-[3-(2-hydroxymethyl-6-methyl-pyridin-4-yl)-phenyl]-7-methyl-1,3-dihydro-benzo[b][1,4]diazepin-2-one] returned a melting point of 202 °C.
Same read-out and setting: the value for `Cc1cc(-c2cccc(C3=Nc4cc(C)c(C(F)(F)F)cc4NC(=O)C3)c2)cc(CO)n1` [Example 402, 4-[3-(2-Hydroxymethyl-6-methyl-pyridin-4-yl)-phenyl]-7-methyl-8-trifluoromethyl-1,3-dihydro-benzo[b][1,4]diazepin-2-one] was 200 °C.
On the same count and under the same terms, the value for `Cc1cc(-c2cccc(C3=Nc4cc(Cl)c(C(F)(F)F)cc4NC(=O)C3)c2)cc(CO)n1` [Example 403, 7-Chloro-4-[3-(2-hydroxymethyl-6-methyl-pyridin-4-yl)-phenyl]-8-trifluoromethyl-1,3-dihydro-benzo[b][1,4]diazepin-2-one] was 163 °C; that for `Cc1cc(-c2cccc(C3=Nc4cc(Cl)c(Cl)cc4NC(=O)C3)c2)cc(CO)n1` [Example 404, 7,8-Dichloro-4-[3-(2-hydroxymethyl-6-methyl-pyridin-4-yl)-phenyl]-1,3-dihydro-benzo[b][1,4]diazepin-2-one] was 234 °C.
On the same count and under the same terms, the value for `Cc1cc(-c2cccc(C3=Nc4cc(OCC(F)(F)F)c(C(F)(F)F)cc4NC(=O)C3)c2)cc(CO)n1` [Example 405, 4-[3-(2-Hydroxymethyl-6-methyl-pyridin-4-yl)-phenyl]-7-(2,2,2-trifluoro-ethoxy)-8-trifluoromethyl-1,3-dihydro-benzo[b][1,4]diazepin-2-one] was 227 °C.
Molecule `CCOc1cc2c(cc1C(F)(F)F)NC(=O)CC(c1cccc(-c3cc(C)nc(CO)c3)c1)=N2` [Example 406, 7-Ethoxy-4-[3-(2-hydroxymethyl-6-methyl-pyridin-4-yl)-phenyl]-8-trifluoromethyl-1,3-dihydro-benzo[b][1,4]diazepin-2-one] showed a melting point of 225 °C.
On the same count and under the same terms, the value for `Cc1cc(-c2cccc(C3=Nc4ccc(C(F)(F)F)cc4NC(=O)C3)c2)cc(CO)n1` [Example 407, 4-[3-(2-Hydroxymethyl-6-methyl-pyridin-4-yl)-phenyl]-8-trifluoromethyl-1,3-dihydro-benzo[b][1,4]diazepin-2-one] was 228 °C; that for `Cc1cc(-c2cccc(C3=Nc4cc(N(C)CC(C)C)c(C(F)(F)F)cc4NC(=O)C3)c2)cc(C)n1` [Example 408, 4-[3-(2,6-Dimethyl-pyridin-4-yl)-phenyl]-7-(isobutyl-methyl-amino)-8-trifluoromethyl-1,3-dihydro-benzo[b][1,4]diazepin-2-one] was 215 °C.
Consider `Cc1cc(-c2cccc(C3=Nc4cc(N(C)C)c(C(F)(F)F)cc4NC(=O)C3)c2)cc(C)n1` [Example 409, 7-Dimethylamino-4-[3-(2,6-dimethyl-pyridin-4-yl)-phenyl]-8-trifluoromethyl-1,3-dihydro-benzo[b][1,4]diazepin-2-one], for which the melting point is 256 °C.
On the same count and under the same terms, the result for `Cc1cc(-c2cccc(C3=Nc4cc(N5CCCC5)c(C(F)(F)F)cc4NC(=O)C3)c2)cc(C)n1` [Example 411, 4-[3-(2,6-Dimethyl-pyridin-4-yl)-phenyl]-7-pyrrolidin-1-yl-8-trifluoromethyl-1,3-dihydro-benzo[b][1,4]diazepin-2-one] reads 233 °C.
Same read-out and setting: the value for `Cc1cc(-c2cccc(C3=Nc4cc(N(C)C(C)C)c(C(F)(F)F)cc4NC(=O)C3)c2)cc(C)n1` [Example 412, 4-[3-(2,6-Dimethyl-pyridin-4-yl)-phenyl]-7-(isopropyl-methyl-amino)-8-trifluoromethyl-1,3-dihydro-benzo[b][1,4]diazepin-2-one] was 232 °C; that for `CCCN(C)c1cc2c(cc1C(F)(F)F)NC(=O)CC(c1cccc(-c3cc(C)nc(C)c3)c1)=N2` [Example 413, 4-[3-(2,6-Dimethyl-pyridin-4-yl)-phenyl]-7-(methyl-propyl-amino)-8-trifluoromethyl-1,3-dihydro-benzo[b][1,4]diazepin-2-one] was 233 °C.
On the same count and under the same terms, the result for `Cc1cc(-c2cccc(C3=Nc4cc(C(F)(F)F)c(C(F)(F)F)cc4NC(=O)C3)c2)ccn1` [Example 414, 4-[3-(2-Methyl-pyridin-4-yl)-phenyl]-7,8-bis-trifluoromethyl-1,3-dihydro-benzo[b][1,4]diazepin-2-one] reads 209 °C.
For `Cc1cc(-c2cccc(C3=Nc4cc(C(F)(F)F)c(C(F)(F)F)cc4NC(=O)C3)c2)cc(C)n1` [Example 415, 4-[3-(2,6-Dimethyl-pyridin-4-yl)-phenyl]-7,8-bis-trifluoromethyl-1,3-dihydro-benzo[b][1,4]diazepin-2-one], the melting point was determined as 220 °C.
Same read-out and setting: the value for `O=C1CC(c2cccc(-c3cccnc3)c2)=Nc2cc(C(F)(F)F)c(C(F)(F)F)cc2N1` [Example 416, 4-(3-Pyridin-3-yl-phenyl)-7,8-bis-trifluoromethyl-1,3-dihydro-benzo[b][1,4]diazepin-2-one] was 210 °C; that for `O=C1CC(c2cccc(-c3ccnc(CO)c3)c2)=Nc2cc(C(F)(F)F)c(C(F)(F)F)cc2N1` [Example 417, 4-[3-(2-Hydroxymethyl-pyridin-4-yl)-phenyl]-7,8-bis-trifluoromethyl-1,3-dihydro-benzo[b][1,4]diazepin-2-one] was 209 °C.

(Values after patent US6949542B2, “Dihydro-benzo[b][1,4]diazepin-2-one derivatives” (Hoffman-La Roche Inc., priority 2002, dated 2005).)
